Data on 14 compounds can be found in patent US9938269B2, “Inhibitor compounds of phosphodiesterase type 10A” (ABBVIE INC., priority 2011, dated 2018).

For series [1], the system named is amphetamine-induced hyperactivity. Conditions: rat, in vivo; cited from earlier work.
The conditions of series [2]: after systemic administration; cited from earlier work.
Series [3] relates to hyperactivity in rats induced by PCP. The settings on record: cited from earlier work.
Another series deals with catalepsy in rats. Conditions: cited from earlier work.
A short description of series [4]: in vitro. Conditions: human, microsomes, pH 7.4.
Another series has as its target T1, PDE10A (human) (Homo sapiens, UniProt Q9Y233).
T1 construct: purchased BPS Bioscience
The experiment in a line: Measurement of PDE activity (HTRF cAMP kit), human PDE10A. It is filed as biochemical. Conditions: PDE enzymatic reaction, substrate 20 nM for PDE10, 60 minutes at 29 C. Put shortly: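 HTRF detection of cAMP left after hydrolysis, expressed as percent of uninhibited control to derive IC50. Reaction: serially diluted inhibitor mixed with recombinant enzyme, started with 20 nM cAMP, 60 min at 29 °C in Tris-HCl pH 7.5 buffer containing MgCl2 and BSA.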

The nature of series [5]: in vitro. The settings on record: rat, microsomes, pH 7.4.
Series [6] is described as follows: Determination of the microsomal half-life, human liver microsomes. Conditions: human, liver microsomes, pH 7.4. In general terms: Microsomes from liver hold many membrane-bound enzymes, among them those of drug oxidation.
Series [7] in a line: Determination of the microsomal half-life, rat liver microsomes. Conditions: rat, liver microsomes, pH 7.4.

Molecules are shown by their SMILES. Where a name gives a salt, the structure may show the parent alone.

T1 sequence (Q9Y233 whole entry): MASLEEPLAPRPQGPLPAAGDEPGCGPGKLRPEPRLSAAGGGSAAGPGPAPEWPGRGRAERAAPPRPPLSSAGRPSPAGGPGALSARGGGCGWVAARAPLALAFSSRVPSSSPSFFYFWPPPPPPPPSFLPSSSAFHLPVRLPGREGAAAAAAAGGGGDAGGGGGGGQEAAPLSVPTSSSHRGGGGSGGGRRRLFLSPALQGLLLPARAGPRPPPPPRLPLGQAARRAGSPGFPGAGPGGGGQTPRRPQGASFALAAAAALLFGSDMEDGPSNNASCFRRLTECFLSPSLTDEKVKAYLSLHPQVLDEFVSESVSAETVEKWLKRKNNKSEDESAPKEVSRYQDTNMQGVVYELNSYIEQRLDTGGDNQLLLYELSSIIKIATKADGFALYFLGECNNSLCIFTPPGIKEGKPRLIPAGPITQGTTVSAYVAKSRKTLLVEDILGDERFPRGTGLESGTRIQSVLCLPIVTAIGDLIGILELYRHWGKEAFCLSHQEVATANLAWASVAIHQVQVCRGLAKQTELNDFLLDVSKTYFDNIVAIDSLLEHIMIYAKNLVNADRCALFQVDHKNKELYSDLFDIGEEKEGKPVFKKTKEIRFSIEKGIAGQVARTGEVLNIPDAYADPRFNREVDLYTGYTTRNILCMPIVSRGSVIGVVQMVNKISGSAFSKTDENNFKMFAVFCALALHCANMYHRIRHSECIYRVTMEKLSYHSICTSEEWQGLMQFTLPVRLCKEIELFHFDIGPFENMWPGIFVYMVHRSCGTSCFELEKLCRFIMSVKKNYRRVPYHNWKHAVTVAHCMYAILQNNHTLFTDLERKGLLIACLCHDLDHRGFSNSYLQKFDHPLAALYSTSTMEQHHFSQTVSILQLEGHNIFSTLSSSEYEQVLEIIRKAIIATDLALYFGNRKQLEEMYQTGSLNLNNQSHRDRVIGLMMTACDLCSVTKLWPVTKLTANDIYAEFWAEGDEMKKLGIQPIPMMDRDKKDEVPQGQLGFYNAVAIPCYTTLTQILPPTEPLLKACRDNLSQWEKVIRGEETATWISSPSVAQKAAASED

As to `COc1ccc(Cc2nccc3cc(OC)c(OC)cc23)cc1OC` [Papaverine, papaverine], in [1], the “reduction of amphetamine-induced hyperactivity” value was “insignificant”. In addition, the exposure half-life result in [2] is “very short”. In [3], the “hyperactivity induced by PCP” value is reported as “reduced hyperactivity”. Further, in the series with catalepsy in rats (papaverine alone), the “catalepsy on its own” value is reported as “did not cause catalepsy on its own”. Besides, the “cataleptic effect of the D2 receptor antagonist haloperidol” value with catalepsy in rats (together with haloperidol) was “potentiated the cataleptic effect”.

In general, microsomal CLint refers to the capacity of the preparation to metabolise the compound, expressed as a volume cleared per time. By IC50 is commonly meant the midpoint of a concentration-inhibition curve. Read a low IC50 as greater potency in that assay. With `O=C1c2c(cccc2N2C3CCC2CNC3)CN1CCc1ccc2ccccc2n1` [Example 103, 7-(3,8-Diaza-bicyclo[3.2.1]oct-8-yl)-2-(2-quinolin-2-yl-ethyl)-2,3-dihydro-isoindol-1-one], the microsomal CLint at 0.5 μM in the series “in vitro [4]” and in the series “in vitro [5]” was less than 100 µL/min/mg in each case. On PDE10A (human), this compound yielded an IC50 of 200 to 500 nM.

On to `COc1ccc(-c2cccnc2)c2c1C(=O)N(CCc1cn3ccccc3n1)C2` [compound 456, 2-(2-Imidazo[1,2-a]pyridin-2-yl-ethyl)-7-methoxy-4-pyridin-3-yl-2,3-dihydro-isoindol-1-one trifluoroacetate], for which the concentration for half-maximal inhibition (IC50) against PDE10A (human) was less than 100 nM. The results for the microsomal CLint at 0.5 μM in series [6] and in series [7] were less than 100 µL/min/mg and 100 to 220 µL/min/mg, respectively.

Take `Cc1ncccc1-c1cccc2c1C(=O)N(CCc1cn3ccccc3n1)C2` [Example 240, 2-(2-Imidazo[1,2-a]pyridin-2-yl-ethyl)-7-(2-methyl-pyridin-3-yl)-2,3-dihydro-isoindol-1-one]: the IC50 at PDE10A (human) was less than 100 nM. The intrinsic clearance (microsomal CLint) at 0.5 μM in series [6] is less than 100 µL/min/mg; in [7], 100 to 220 µL/min/mg.

On PDE10A (human), `O=C1c2c(cccc2-c2ccc3[nH]cnc(=O)c3c2)CN1CCc1ccc2ccccc2n1` [Example 7, 6-[3-oxo-2-(2-quinolin-2-yl-ethyl)-2,3-dihydro-1H-isoindol-4-yl]-1H-quinazolin-4-one trifluoroacetate] displayed an IC50 of 200 to 500 nM. Moreover, the microsomal CLint at 0.5 μM in series [6] and in [7] was 100 to 220 µL/min/mg each time.

Take `O=C1c2cccc(OCc3cccnc3)c2C(=O)N1CCc1ccc2ccccc2n1` [Example 246, 4-(Pyridin-3-ylmethoxy)-2-(2-quinolin-2-yl-ethyl)-isoindole-1,3-dione]: the IC50 on PDE10A (human) was less than 100 nM. Besides, the microsomal CLint at 0.5 μM in series [6] is 100 to 220 µL/min/mg; in series [7], greater than 220 µL/min/mg.

On to `O=C1c2c(cccc2-c2ccncc2)CN1CCc1nc2ccccc2s1` [Example 223, 2-(2-Benzothiazol-2-yl-ethyl)-7-pyridin-4-yl-2,3-dihydro-isoindol-1-one trifluoroacetate], for which, on PDE10A (human), the half-maximal inhibitory concentration (IC50) is less than 100 nM. The microsomal CLint at 0.5 μM in [6] and in series [7] was less than 100 µL/min/mg each time.

At PDE10A (human), `O=C1c2c(N3CCOCC3)ccnc2CN1CCc1ccc2ncccc2n1` [compound 514, 4-Morpholino-6-[2-(1,5-naphthyridin-2-yl)ethyl]-7H-pyrrolo[3,4-b]pyridin-5-one] yielded an IC50 of less than 100 nM. Moreover, the microsomal CLint at 0.5 μM in series [6] and in series [7] was less than 100 µL/min/mg in each case.

For the compound `COc1cccc(CCN2Cc3nccc(-c4cccnc4)c3C2=O)n1` [compound 503, 6-[2-(6-Methoxy-2-pyridyl)ethyl]-4-(3-pyridyl)-7H-pyrrolo[3,4-b]pyridin-5-one trifluoroacetate], the half-maximal inhibitory concentration (IC50) against PDE10A (human) is 100 to 200 nM. Further, the microsomal CLint at 0.5 μM in series [6] and in series [7] was 100 to 220 µL/min/mg throughout.

On to `O=C1c2c(N3CCC(CF)C3)ccnc2CN1CCc1cn2ccccc2n1` (centres unmarked) [compound 384, 4-[3-(Fluoromethyl)pyrrolidin-1-yl]-6-(2-imidazo[1,2-a]pyridin-2-ylethyl)-7H-pyrrolo[3,4-b]pyridin-5-one], for which, at PDE10A (human), the IC50 is less than 100 nM. The microsomal CLint at 0.5 μM in series [6] is less than 100 µL/min/mg; in series [7], 100 to 220 µL/min/mg.

Compound `CN(C)C1CCN(c2ccnc3c2C(=O)N(CCc2ccc4ccccc4n2)C3)CC1` [Example 363, 4-(4-Dimethylamino-piperidin-1-yl)-6-(2-quinolin-2-yl-ethyl)-6,7-dihydro-pyrrolo[3,4-b]pyridin-5-one hydrochloride] gave an IC50 on PDE10A (human) of 200 to 500 nM. Also, the microsomal CLint at 0.5 μM in [6] and in [7] was less than 100 µL/min/mg in each case.

On PDE10A (human), `Cn1nccc1-c1ccnc2c1C(=O)N(CCc1ccc3ccccc3n1)C2` [Example 162, 4-(2-Methyl-2H-pyrazol-3-yl)-6-(2-quinolin-2-yl-ethyl)-6,7-dihydro-pyrrolo[3,4-b]pyridin-5-one hydrochloride] yielded an IC50 of less than 100 nM. Further, the microsomal CLint at 0.5 μM in [6] and in series [7] was less than 100 µL/min/mg throughout.

With `[2H]c1nc2c(c(N3C([2H])([2H])C([2H])([2H])OC([2H])([2H])C3([2H])[2H])c1[2H])C(=O)N(C([2H])([2H])Cc1nc3c([2H])c([2H])c([2H])c([2H])c3c([2H])c1[2H])C2([2H])[2H]` [compound 510, 2,3,7,7-Tetradeuterio-6-[1,1-dideuterio-2-(3,4,5,6,7,8-hexadeuterio-2-quinolyl)ethyl]-4-(2,2,3,3,5,5,6,6-octadeuteriomorpholin-4-yl)pyrrolo[3,4-b]pyridin-5-one], the IC50 against PDE10A (human) was less than 100 nM. Moreover, the results for the microsomal CLint at 0.5 μM in series [6] and in series [7] were 100 to 220 µL/min/mg and greater than 220 µL/min/mg, respectively.

For the compound `COC(=O)C1CN(Cc2cccc3c2C(=O)N(CCc2ccc4ccccc4n2)C3)C1` [compound 531, 1-[3-Oxo-2-(2-quinolin-2-yl-ethyl)-2,3-dihydro-1H-isoindol-4-ylmethyl]-azetidine-3-carboxylic acid methyl ester], the IC50 against PDE10A (human) is less than 100 nM. Also, the microsomal CLint at 0.5 μM in series [6] and in [7] was less than 100 µL/min/mg in each case.
